Test system: UCD patients
Experiment: Example 3: TEAEs, serious and non-serious adverse events
Assay type: in vivo
Description: Sixteen newborn infants aged 0 to 27 days, and 10 infants and toddlers aged 28 days to 23 months received RAVICTI Oral Liquid administered just prior to breastfeeding or intake of formula or food. The recommended dosing regimen was 3-6 times per day depending on feeding schedule.
Number of Subjects with Treatment-Emergent Adverse Events (TEAEs), Serious TEAEs, Deaths, and Discontinuations Due to TEAEs
An adverse event (AE) is any untoward medical occurrence, whether or not the event is considered related to the study drug. A serious AE is any AE that: results in death; is life threatening; requires hospitalization or prolongation of existing hospitalization; results in disability/incapacity; is a congenital anomaly/birth defect; is an important medical event. TEAEs are defined as AEs with an onset date on or after the first dose of study medication until study discontinuation. The Investigator assessed the causal relationship of each TEAE to the study drug as not related, possibly related, or probably related. From the first dose of study treatment through 30 days after the final dose (mean [SD] duration of treatment was 9.13 [6.838] months).

O=C(CCCc1ccccc1)OCC(COC(=O)CCCc1ccccc1)OC(=O)CCCc1ccccc1 [RAVICTI, benzenebutanoic acid, 1′,1″-(1,2,3-propanetriyl) ester]
Number of Deaths (All Causes) (Age 0 to <2 Months): 0 | Serious AE Ammonia Increased: Deaths causally related to treatment/all (Age 0 to <2 Months): 0/0 | Serious AE Ammonia Increased: Occurrences causally related to treatment/all (Age 0 to <2 Months): 0/0 | Serious AE Apnoeic Attack: Deaths causally related to treatment/all (Age 0 to <2 Months): 0/0 | Serious AE Apnoeic Attack: Occurrences causally related to treatment/all (Age 0 to <2 Months): 0/0 | Serious AE Asthma: Deaths causally related to treatment/all (Age 0 to <2 Months): 0/0 | Serious AE Asthma: Occurrences causally related to treatment/all (Age 0 to <2 Months): 0/0 | Serious AE Atelectasis: Deaths causally related to treatment/all (Age 0 to <2 Months): 0/0 | Serious AE Atelectasis: Occurrences causally related to treatment/all (Age 0 to <2 Months): 0/1 | Serious AE Bacteraemia: Deaths causally related to treatment/all (Age 0 to <2 Months): 0/0 | Serious AE Bacteraemia: Occurrences causally related to treatment/all (Age 0 to <2 Months): 0/1 | Serious AE Cellulitis: Deaths causally related to treatment/all (Age 0 to <2 Months): 0/0 | Serious AE Cellulitis: Occurrences causally related to treatment/all (Age 0 to <2 Months): 0/1 | Serious AE Croup infectious: Deaths causally related to treatment/all (Age 0 to <2 Months): 0/0 | Serious AE Croup infectious: Occurrences causally related to treatment/all (Age 0 to <2 Months): 0/1 | Serious AE Cyanosis: Deaths causally related to treatment/all (Age 0 to <2 Months): 0/0 | Serious AE Cyanosis: Occurrences causally related to treatment/all (Age 0 to <2 Months): 0/0 | Serious AE Dehydration: Deaths causally related to treatment/all (Age 0 to <2 Months): 0/0 | Serious AE Dehydration: Occurrences causally related to treatment/all (Age 0 to <2 Months): 0/1 | Serious AE Device related infection: Deaths causally related to treatment/all (Age 0 to <2 Months): 0/0 | Serious AE Device related infection: Occurrences causally related to treatment/all (Age 0 to <2 Months): 0/1 | Serious AE Feeding Disorder: Deaths causally related to treatment/all (Age 0 to <2 Months): 0/0 | Serious AE Feeding Disorder: Occurrences causally related to treatment/all (Age 0 to <2 Months): 0/1 | Serious AE Gastroenteritis: Deaths causally related to treatment/all (Age 0 to <2 Months): 0/0 | Serious AE Gastroenteritis: Occurrences causally related to treatment/all (Age 0 to <2 Months): 0/0 | Serious AE Hyperammonaemia: Deaths causally related to treatment/all (Age 0 to <2 Months): 0/0 | Serious AE Hyperammonaemia: Occurrences causally related to treatment/all (Age 0 to <2 Months): 0/7 | Serious AE Influenza: Deaths causally related to treatment/all (Age 0 to <2 Months): 0/0 | Serious AE Influenza: Occurrences causally related to treatment/all (Age 0 to <2 Months): 0/0 | Serious AE Lethargy: Deaths causally related to treatment/all (Age 0 to <2 Months): 0/0 | Serious AE Lethargy: Occurrences causally related to treatment/all (Age 0 to <2 Months): 0/1 | Serious AE Medical device site infection: Deaths causally related to treatment/all (Age 0 to <2 Months): 0/0 | Serious AE Medical device site infection: Occurrences causally related to treatment/all (Age 0 to <2 Months): 0/1 | Serious AE Meningitis bacterial: Deaths causally related to treatment/all (Age 0 to <2 Months): 0/0 | Serious AE Meningitis bacterial: Occurrences causally related to treatment/all (Age 0 to <2 Months): 0/1 | Serious AE Neutropenia: Deaths causally related to treatment/all (Age 0 to <2 Months): 0/0 | Serious AE Neutropenia: Occurrences causally related to treatment/all (Age 0 to <2 Months): 0/1 | Serious AE Peritonitis: Deaths causally related to treatment/all (Age 0 to <2 Months): 0/0 | Serious AE Peritonitis: Occurrences causally related to treatment/all (Age 0 to <2 Months): 0/0 | Serious AE Pneumatosis intestinalis: Deaths causally related to treatment/all (Age 0 to <2 Months): 0/0 | Serious AE Pneumatosis intestinalis: Occurrences causally related to treatment/all (Age 0 to <2 Months): 0/0 | Serious AE Pyrexia: Deaths causally related to treatment/all (Age 0 to <2 Months): 0/0 | Serious AE Pyrexia: Occurrences causally related to treatment/all (Age 0 to <2 Months): 0/0 | Serious AE Respiratory syncytial virus infection: Deaths causally related to treatment/all (Age 0 to <2 Months): 0/0 | Serious AE Respiratory syncytial virus infection: Occurrences causally related to treatment/all (Age 0 to <2 Months): 0/1 | Serious AE Rhinovirus infection: Deaths causally related to treatment/all (Age 0 to <2 Months): 0/0 | Serious AE Rhinovirus infection: Occurrences causally related to treatment/all (Age 0 to <2 Months): 0/0 | Serious AE Status asthmaticus: Deaths causally related to treatment/all (Age 0 to <2 Months): 0/0 | Serious AE Status asthmaticus: Occurrences causally related to treatment/all (Age 0 to <2 Months): 0/0 | Serious AE Tracheitis: Deaths causally related to treatment/all (Age 0 to <2 Months): 0/0 | Serious AE Tracheitis: Occurrences causally related to treatment/all (Age 0 to <2 Months): 0/1 | Serious AE Upper respiratory tract infection: Deaths causally related to treatment/all (Age 0 to <2 Months): 0/0 | Serious AE Upper respiratory tract infection: Occurrences causally related to treatment/all (Age 0 to <2 Months): 0/1 | Serious AE Urinary tract infection: Deaths causally related to treatment/all (Age 0 to <2 Months): 0/0 | Serious AE Urinary tract infection: Occurrences causally related to treatment/all (Age 0 to <2 Months): 0/1 | Serious AE Viral infection: Deaths causally related to treatment/all (Age 0 to <2 Months): 0/0 | Serious AE Viral infection: Occurrences causally related to treatment/all (Age 0 to <2 Months): 0/1 | Serious AE Viral upper respiratory tract infection: Deaths causally related to treatment/all (Age 0 to <2 Months): 0/0 | Serious AE Viral upper respiratory tract infection: Occurrences causally related to treatment/all (Age 0 to <2 Months): 0/0 | Serious AE Vomiting: Deaths causally related to treatment/all (Age 0 to <2 Months): 0/0 | Serious AE Vomiting: Occurrences causally related to treatment/all (Age 0 to <2 Months): 0/2 | Number of Deaths (All Causes) (Age 2 Months to <2 Years): 1 | Serious AE Ammonia Increased: Deaths causally related to treatment/all (Age 2 Months to <2 Years): 0/0 | Serious AE Ammonia Increased: Occurrences causally related to treatment/all (Age 2 Months to <2 Years): 0/1 | Serious AE Apnoeic Attack: Deaths causally related to treatment/all (Age 2 Months to <2 Years): 0/0 | Serious AE Apnoeic Attack: Occurrences causally related to treatment/all (Age 2 Months to <2 Years): 0/2 | Serious AE Asthma: Deaths causally related to treatment/all (Age 2 Months to <2 Years): 0/0 | Serious AE Asthma: Occurrences causally related to treatment/all (Age 2 Months to <2 Years): 0/1 | Serious AE Atelectasis: Deaths causally related to treatment/all (Age 2 Months to <2 Years): 0/0 | Serious AE Atelectasis: Occurrences causally related to treatment/all (Age 2 Months to <2 Years): 0/0 | Serious AE Bacteraemia: Deaths causally related to treatment/all (Age 2 Months to <2 Years): 0/0 | Serious AE Bacteraemia: Occurrences causally related to treatment/all (Age 2 Months to <2 Years): 0/0 | Serious AE Cellulitis: Deaths causally related to treatment/all (Age 2 Months to <2 Years): 0/0 | Serious AE Cellulitis: Occurrences causally related to treatment/all (Age 2 Months to <2 Years): 0/0 | Serious AE Croup infectious: Deaths causally related to treatment/all (Age 2 Months to <2 Years): 0/0 | Serious AE Croup infectious: Occurrences causally related to treatment/all (Age 2 Months to <2 Years): 0/1 | Serious AE Cyanosis: Deaths causally related to treatment/all (Age 2 Months to <2 Years): 0/0 | Serious AE Cyanosis: Occurrences causally related to treatment/all (Age 2 Months to <2 Years): 0/2 | Serious AE Dehydration: Deaths causally related to treatment/all (Age 2 Months to <2 Years): 0/0 | Serious AE Dehydration: Occurrences causally related to treatment/all (Age 2 Months to <2 Years): 0/0 | Serious AE Device related infection: Deaths causally related to treatment/all (Age 2 Months to <2 Years): 0/0 | Serious AE Device related infection: Occurrences causally related to treatment/all (Age 2 Months to <2 Years): 0/0 | Serious AE Feeding Disorder: Deaths causally related to treatment/all (Age 2 Months to <2 Years): 0/0
